Data from patent US5763435A, “Sulfate conjugates of ursodeoxycholic acid, and their beneficial use in inflammatory disorders” (priority 1995, dated 1998).
Several values for one entry are separate records, joined by “and”; a condition that tells them apart may be missing. Equal values may be shown once. Entries after “also recorded” stand apart in the source; their conditions may differ.

Legend:
bile-flow = experiment: Bile-flow and bile acid secretion during i.v. infusion; type: in vivo, Sprague-Dawley rats; details: for Bile flow, maximum / Bile salt output (biliary bile acid secretion rate), maximum: i.v. infusion 0.5, 1.0, 2.0 μmol/min/100 g, mean ± SEM, six animals; for Apparent choleretic activity (slope of regression line): i.v. infusion, bile acid secretion rate vs bile-flow
Method: Adult male Sprague-Dawley rats (body weight 200-230 g) were anesthetized by an intraperitoneal injection of pentobarbital (Nembutal, 7.5 mg/100 g body weight), and maintained under sedation by additional doses. The right jugular vein and the common bile duct were cannulated using PE-50 polyethylene tubing (Clay-Adams, Parsippany, N.J.). Body temperature was maintained throughout the experiment at 37° C. using a rectal probe and a thermostatically controlled heating pad (Harvard Apparatus Co., Inc., Millis, Mass.). Saline was infused at a rate of 1.0 ml/h using a Harvard pump (Harvard Apparatus Co., Inc.) into the jugular vein for a control period of 2h. After collecting two 10 minute bile samples for base-line analysis, the bile acids were individually infused intravenously (i.v.) for 30 minutes in stepwise increasing doses (0.5, 1.0, and 2.0 μmol/min/100 g body weight). Bile acid solutions were prepared in 3% human albumin in 0.45% saline. Six animals were used for each experiment and bile was collected every 10 minutes into preweighed tubes. At the end of the experiment, blood was obtained by cardiac puncture, and urine was obtained by aspiration of the bladder. All biological specimens were stored at -20° C. This animal study protocol (#1 B 10044) was approved by the Bioethics committee of the Children's Hospital Medical Center (Cincinnati, Ohio).
Bile volume was determined gravimetrically assuming a density of 1 g/ml. Total 3α-hydroxy bile acid concentration in the bile was measured enzymatically before solvolysis (nonsulfated bile acids) and after solvolysis (total bile acids) (Mashige, F., et al., Direct spectrometry of total bile acids in serum. Clin. Chem. 27: 1352-1356 (1981)). The bile acid output was calculated by multiplying the rate of bile-flow by the bile acid concentration. Biliary phospholipids were determined by an enzymatic procedure based on the choline oxidase method (Nippon Shoji Kaisha, Ltd., Osaka, Japan) (Grantz, D., et al., Enzymatic measurement of choline-containing phospholipids in bile. J. Lipid Res. 22: 273-276 (1981)). Cholesterol was also measured enzymatically (Boehringer Mannehim, Indianapolis, Ind.) (Fromm, H., et al., Use of a simple enzymatic assay for cholesterol analysis in human bile. J. Lipid Res. 21: 259-261 (1980)).
Results were expressed as mean±standard error of mean (SEM). Bile-flow and biliary lipid output were expressed as μl /min/g liver and nmol/min/g liver, respectively. Statistical analysis was made using INSTAT program (Graphpad Software Inc., San Diego, Calif.). Parametric data among groups were analyzed using Student's t-test. The statistical comparisons between the different groups were made by one-way analysis of variance (ANOVA). […] Linear regression analysis was performed. The choleretic activity of each bile acid was determined from the slope of regression line of the correlation between the bile acid secretion rate and bile-flow and was expressed as […]. Comparisons between slopes were made by one-way ANOVA.

[1] = system: Principal Bile Acids in Liver; experiment: Bile acid composition of liver tissue after oral administration (GC-MS); type: in vivo, Sprague-Dawley rats
Method: Male Sprague-Dawley rats (Harlan Sprague-Dawley, Inc., Indianapolis, Ind.), weighing 210-290 g, were maintained on a 12-hour light-dark cycle and fed standard laboratory chow ad libitum for 3 days. The animals were then transferred to metabolic cages in which they were housed individually and fed the same diet. UDCA, UDCA 3-sulfate, UDCA 7-sulfate, and UDCA 3,7-disulfate were administered by gavage at a dose of 250 mg/day for 4 consecutive days. Each group comprised 3-6 rats. Body weights of the animals were measured each day. On day 5, the animals were killed by exsanguination under ether anesthesia. Plasma was collected and frozen at -20° C. The liver was removed, rinsed in normal saline, and flash-frozen in liquid nitrogen. Urine and feces were collected every 24 hours and frozen at -20° C. All animals received humane care in compliance with the "Guide for the Care and Use of Laboratory Animals" prepared by the National Academy of Sciences (National Institutes of Health publication no. 86-23, revised in 1985).
Samples of liver (100 mg) were ground to a fine paste, and bile acids were extracted by reflux and passage through a column of Lipidex 1000 as described above for intestinal contents and feces. Group separation of bile acids, according to their mode of conjugation was achieved by lipophilic anion-exchange chromatography. Extracts from each animal were pooled, and bile acids and their conjugates were separated using Lipidex-DEAP and stepwise elution of the gel bed with the following buffers: 0.1 mol/L acetic acid in 72% ethanol (unconjugated bile acids); 0.3 mol/L acetic acid in 72% ethanol, pH 5.0 (glycine conjugates); 0.15 mol/L acetic acid in 72% ethanol, pH 6.5 (taurine conjugates); and 0.3 mol/L acetic acid in 72% ethanol, pH 9.6 (sulfate conjugates). After evaporation of the buffers, sulfated bile acids were solvolyzed, whereas amidated conjugates were hydrolyzed with 50 U of cholylglycine hydrolase (Sigma Chemical Co.) in 2.5 mL of 0.2 mol/L phosphate buffer, pH 5.6, at 37° C. overnight. The resulting unconjugated bile acids were isolated on Lipidex-DEAP, and the methyl ester-trimethylsilyl ether derivatives were prepared as described above.
GC-MS analysis was performed using a Finnigan 4635 mass spectrometer (Finnigan Inc., San Jose, Calif.) that housed an identical gas chromatography column operated under the same conditions. Electron ionization (70 eV) mass spectra were recorded over the mass range of 50-800 daltons by repetitive scanning of the eluting components. Identification of bile acids was made on the basis of the gas chromatography retention index relative to a homologous series of n-alkanes, referred to as the methylene unit value, and the mass spectrum compared with authentic standards. Quantification of bile acids was achieved using gas chromatography by comparing the peak height response of the individual bile acids with the peak height response obtained from the internal standard.
Data are expressed as mean±SEM or as mean values of all animals when extracts were pooled before analysis. Results from different groups were compared using paired and unpaired two-tailed Student's t-test. P values of <0.05 were considered statistically significant.

Row | SMILES | Bile flow, maximum (bile-flow) [μl/min/g liver] | Bile salt output (biliary bile acid secretion rate), maximum (bile-flow) | Apparent choleretic activity (slope of regression line) (bile-flow) [µL/µmol] | Chenodeoxycholic acid concentration in liver ([1]; oral gavage 250 mg/day, 4 days) [nmol/g] | Chenodeoxycholic acid percent of hepatic bile acids ([1]; oral gavage 250 mg/day, 4 days) [%] | Cholic acid concentration in liver ([1]; oral gavage 250 mg/day, 4 days) [nmol/g] | Cholic acid percent of hepatic bile acids ([1]; oral gavage 250 mg/day, 4 days) [%] | Deoxycholic acid concentration in liver ([1]; oral gavage 250 mg/day, 4 days) [nmol/g] | Deoxycholic acid percent of hepatic bile acids ([1]; oral gavage 250 mg/day, 4 days) [%] | Lithocholic acid concentration in liver ([1]; oral gavage 250 mg/day, 4 days) [nmol/g] | Lithocholic acid percent of hepatic bile acids ([1]; oral gavage 250 mg/day, 4 days) [%] | Total bile acid concentration in liver ([1]; oral gavage 250 mg/day, 4 days) [nmol/g] | UDCA percent of hepatic bile acids ([1]; oral gavage 250 mg/day, 4 days) [%] | Δ^22-UDCA concentration in liver ([1]; oral gavage 250 mg/day, 4 days) [nmol/g] | Δ^22-UDCA percent of hepatic bile acids ([1]; oral gavage 250 mg/day, 4 days) [%] | Δ^22-β-Muricholic acid concentration in liver ([1]; oral gavage 250 mg/day, 4 days) [nmol/g] | Δ^22-β-Muricholic acid percent of hepatic bile acids ([1]; oral gavage 250 mg/day, 4 days) [%] | Δ^22-ω-Muricholic acid concentration in liver ([1]; oral gavage 250 mg/day, 4 days) [nmol/g] | Δ^22-ω-Muricholic acid percent of hepatic bile acids ([1]; oral gavage 250 mg/day, 4 days) [%] | α-Muricholic acid concentration in liver ([1]; oral gavage 250 mg/day, 4 days) [nmol/g] | further results
1 | C[C@H](CCC(=O)O)[C@H]1CC[C@H]2[C@@H]3[C@@H](OS(=O)(=O)O)C[C@@H]4C[C@H](OS(=O)(=O)O)CC[C@]4(C)[C@H]3CC[C@]12C [UDCA-DS, ursodeoxycholic acid 3,7-disulfate] | 5.92 ± 0.21 | 222.40 ± 24.30 nmol/min/g liver and 222.4±24.3 nmol/min/g liver | 16 ± 1 | 0.7 | 0.2 | 163.2 | 57.7 | 17.3 | 6.1 | 2.2 | 0.8 | 282.7 | 1.7 | 5.8 | 2.0 | 23.0 | 8.1 | 4.0 | 1.4 | 6.5 | α-Muricholic acid percent of hepatic bile acids ([1]; oral gavage 250 mg/day, 4 days): 2.3%; β-Muricholic acid concentration in liver ([1]; oral gavage 250 mg/day, 4 days): 50.1 nmol/g; β-Muricholic acid percent of hepatic bile acids ([1]; oral gavage 250 mg/day, 4 days): 17.7%; ω-Muricholic acid concentration in liver ([1]; oral gavage 250 mg/day, 4 days): 5.0 nmol/g; ω-Muricholic acid percent of hepatic bile acids ([1]; oral gavage 250 mg/day, 4 days): 1.8%; Hepatic UDCA concentration change (in words) ([1]; oral, vs control): low compared with the control animals
2 | C[C@H](CCC(=O)O)[C@H]1CC[C@H]2[C@@H]3[C@@H](O)C[C@@H]4C[C@H](O)CC[C@]4(C)[C@H]3CC[C@]12C [UDCA, 3 alpha, 7 beta-dihydroxy-5 beta-cholan-24oic acid, reference compound] | 4.88 ± 0.16 | 145.10 ± 17.30 nmol/min/g liver and 145.1±17.3 nmol/min/g liver | 16 ± 2 | 12.4 | 3.7 | 42.3 | 12.7 | 22.5 | 6.8 | 8.0 | 2.4 | 331.8 | 30.0 | 37.4 | 11.3 | 20.9 | 6.3 | 4.8 | 1.4 | 16.1 | Conjugation of UDCA in liver tissue ([1]; oral): biotransformed by conjugation, mainly with taurine; also recorded: predominantly conjugated by amidation; Fold decrease of liver tissue cholic acid concentration ([1]; oral): ~4 fold; UDCA concentration in liver ([1]; oral gavage 250 mg/day, 4 days): 99.6 nmol/g; α-Muricholic acid percent of hepatic bile acids ([1]; oral gavage 250 mg/day, 4 days): 4.8%; β-Muricholic acid concentration in liver ([1]; oral gavage 250 mg/day, 4 days): 60.6 nmol/g; β-Muricholic acid percent of hepatic bile acids ([1]; oral gavage 250 mg/day, 4 days): 18.3%; ω-Muricholic acid concentration in liver ([1]; oral gavage 250 mg/day, 4 days): 6.3 nmol/g; ω-Muricholic acid percent of hepatic bile acids ([1]; oral gavage 250 mg/day, 4 days): 1.9%; Hepatic UDCA concentration change (in words) ([1]; oral, vs control): increased concentrations and proportions of liver tissue UDCA; also recorded: increased markedly; Hepatic lithocholic acid change (in words) ([1]; oral, vs control): increased hepatic lithocholic acid concentration
3 | C[C@H](CCC(=O)O)[C@H]1CC[C@H]2[C@@H]3[C@@H](OS(=O)(=O)O)C[C@@H]4C[C@H](O)CC[C@]4(C)[C@H]3CC[C@]12C [UDCA-7S, ursodeoxycholic acid 7-sulfate] | 5.83 ± 0.31 | 255.40 ± 18.20 nmol/min/g liver and 255.4±18.2 nmol/min/g liver | 15 ± 1 | 6.4 | 1.9 | 186.1 | 56.0 | 14.9 | 4.5 | 3.2 | 1.0 | 332.3 | 1.8 | 8.7 | 2.6 | 59.8 | 18.0 | 6.6 | 2.0 | 0.4 | α-Muricholic acid percent of hepatic bile acids ([1]; oral gavage 250 mg/day, 4 days): 0.1%; β-Muricholic acid concentration in liver ([1]; oral gavage 250 mg/day, 4 days): 36.1 nmol/g; β-Muricholic acid percent of hepatic bile acids ([1]; oral gavage 250 mg/day, 4 days): 10.8%; ω-Muricholic acid concentration in liver ([1]; oral gavage 250 mg/day, 4 days): 4.0 nmol/g; ω-Muricholic acid percent of hepatic bile acids ([1]; oral gavage 250 mg/day, 4 days): 1.2%; Hepatic UDCA concentration change (in words) ([1]; oral, vs control): low compared with the control animals
